Reference: article PMC8557901 (Microbiology Spectrum, 2021)

Key:
[1] = Cytotoxicity on HepG2 cell line (MTT); type: cell-based; conditions: human, HepG2 cells
Description: The evaluation of the cytotoxicity of the tested molecules on the HepG2 cell line was performed according to the method of Mosman ([42]) with slight modifications. […] Triplicate assays were performed for each sample. Each well was then examined under a microscope to detect possible precipitate formation before the medium was aspirated from the wells. An amount of 100 μl of MTT solution (0.5 mg/ml in medium without FBS) was then added to each well. […] After this time, the MTT solution was removed and DMSO (100 μl) was added to dissolve the resulting blue formazan crystals. Plates were shaken vigorously (700 rpm) for 10 min. The absorbance was measured at 570 nm with 630 nm as the reference wavelength using a Tecan Infinite F-200 microplate reader. DMSO was used as a blank and doxorubicin as a positive control. Cell viability was calculated as the percentage compared to the control (cells incubated without compound). […] CC50 values represent the mean values calculated from three independent experiments.

[2] = MTT cell viability assay, murine primary hepatocytes; type: cell-based, BALB/c mice; conditions: BALB/c, mouse
From the text: (§1) Primary human hepatocytes were isolated from liver segments obtained from adult patients undergoing partial hepatectomy (Service de Chirurgie Digestive, Hépato-Bilio Pancréatique, Hôpital Pitié Salpêtrière, Paris, France). Primary simian hepatocytes were isolated from liver segments collected from healthy Macaca fascicularis monkeys from CEA, Fontenay aux Roses, France. All hepatocytes were obtained using collagenase perfusion as previously described ([40]). Simian hepatocytes were immediately cryopreserved with a Nicool-Freezal controlled rate freezer (Air Liquide Santé, Marne la Vallée, France) and then used when needed after fast thawing at 37°C. Primary murine hepatocytes were isolated from liver segments collected from BALB/c mice. Human and murine hepatocytes were used directly after their isolation. Cells were seeded in 96-well plates (Falcon; Becton Dickinson Labware Europe, France) coated with collagen I (BD Bioscience, USA) at a density of 80,000 cells per well. […]
(§2) The toxicity of M1 toward primary hepatocytes and HepG2-CD81 cells was evaluated through the MTT {[3-(4,5-dimethyl-2-thiazolyl)-2,5-diphenyl-2H-tetrazolium bromide]} test ([42]). […] Then, MTT was replaced by a mixture of DMSO-ethanol (1:1) to dissolve formazan crystals and the absorbance was read at 540 nm on a FlexStation plate reader.

[3] = MTT cell viability assay, simian primary hepatocytes; type: cell-based; conditions: Macaca fascicularis (cynomolgus monkey), primary hepatocytes (cryopreserved)
From the text: as §1, §2

[4] = tested on: P. falciparum F32-ART5 and F32-TEM; assay: Recrudescence assay F32-ART5 versus F32-TEM; type: cell-based, Plasmodium falciparum; conditions: 48 h drug exposure; M1 2.5 and 10 μM; artemisinin 18 μM
Description: The Plasmodium falciparum artemisinin-resistant strain F32-ART5 and its twin artemisinin-sensitive line F32-TEM ([30], [31]) were cultivated at 37°C with 5% CO2 in human red blood cells (EFS [French Blood Bank]) diluted to 2% hematocrit in RPMI 1640 medium supplemented with 5% human serum (EFS) as previously reported ([47]).
A recrudescence assay was performed to evaluate the ability of the F32-ART5 parasite line to survive drug exposure in comparison to that of the F32-TEM parasite line ([30], [31]) in order to evaluate the risk of cross-resistance between artemisinin and M1. D-Sorbitol-synchronized ring-stage parasites at 3% parasitemia (2% hematocrit) were exposed to the drug for 48 h. After drug exposure, parasite cultures were washed with RPMI 1640 medium and replaced in normal drug-free culture conditions. The time to parasite recrudescence was determined as the time required to reach initial parasitemia. […] Each experiment, performed in parallel for F32-ART5 and F32-TEM cultivated under the same conditions to generate paired results, was carried out at least three times independently and data statistically analyzed.
A statistical analysis (log-rank test) was carried out on data from the recrudescence assay and the QSA using a Kaplan-Meier survival analysis considering censored data. The final event was defined as the time necessary for cultures to reach initial parasitemia. […]

[5] = tested on: P. falciparum mature gametocytes (stage V); assay: Exflagellation-blocking assay; type: cell-based, Plasmodium falciparum; conditions: 10 μM, 24 h preincubation of stage V gametocytes
Description: Exflagellation-blocking assays were performed according to published protocols ([48], [49]). Assays were performed using gametocyte cultures providing high-enough numbers of exflagellation centers for meaningful measurement (>30 centers of exflagellation in 50 microscope fields at 400× magnification). […] The 6-well plate was incubated at 37°C. After treatment with M1 during 2 h or 24 h, exflagellation was induced by decreasing the temperature to 25°C and replacing culture medium with AB serum. The numbers of exflagellation centers were recorded between 10 and 30 min after induction and compared to the numbers in the control (DMSO treatment). Activity was expressed as the percentage of exflagellation inhibition compared to the control.

Structure (SMILES): Cc1ccc(-c2cc3nc(NC(C)(C)C)[nH]c(=O)c3s2)cc1 [Metabolite M1, 2-(tert-Butylamino)-6-(p-tolyl)thieno[3,2-d]pyrimidin-4(3H)-one]
- CC50 at 72 h [1]: 24 µM
- CC50 at 2 days [2]: > 60 µM
- CC50 at 8 days [3]: > 60 µM
- recrudescence of F32-ART5 versus F32-TEM (cross-resistance with artemisinin) [4]: no cross-resistance with artemisinin
- mean percentage for male exflagellation [5]: 7.5%
